Columns and labels:
Format in all cases: cell-based
[1] = tested on: OCI-LY10 cells; test: CTG Cell Viability Assay - OCI-LY10; details: Homo sapiens, 96 h, CellTiter-Glo, 4 days incubation
Description: Compound-mediated viability effect on OCI-LY10 or SUDHL-2 was quantitatively determined using the CellTiter-Glo® Luminescent Cell Viability Assay kit from Promega (Catalog number G7570) following manufacturer's recommended procedures. Briefly, OCI-LY10 or SUDHL-2 cells were seeded into 384 well plates (Grenier Bio-One, Catalog number 781080) with a density of 10,000 cells per well. Compounds were then added to the assay plate with final top concentration of 10 μM and 1:3 dilution series with total of 9 doses. The final DMSO concentration was normalized to 0.2%. The assay plates were incubated at 37° C. for 4 days under 5% CO2. Then the assay plate was equilibrated at room temperature for 10 minutes. To determine cell viability, 30 μL CellTiter Glo reagent was added to each well and the assay plate was centrifuged at 1000 rpm for 30 second, incubated at room temperature for 10 min, and analyzed by detecting the luminescence using a multimode plate reader (EnVision 2105, PerkinElmer). The data was then analyzed by software Prism 7.0 from GraphPad and the dose response curves were fit using a three-parameter logistic equation to calculate IC50.

[2] = biological target: T1, IRAK4 (Homo sapiens, UniProt Q9NWZ3); test: IRAK4 MSD Degradation in OCI-LY10; details: OCI-LY10 cells, 24 hrs incubation; read-out: IRAK4 degradation in OCI-LY10 at 24 hrs: DC50
T1 construct: endogenous in cells; host or cells: OCI-LY10
T1 sequence (Q9NWZ3 1-460): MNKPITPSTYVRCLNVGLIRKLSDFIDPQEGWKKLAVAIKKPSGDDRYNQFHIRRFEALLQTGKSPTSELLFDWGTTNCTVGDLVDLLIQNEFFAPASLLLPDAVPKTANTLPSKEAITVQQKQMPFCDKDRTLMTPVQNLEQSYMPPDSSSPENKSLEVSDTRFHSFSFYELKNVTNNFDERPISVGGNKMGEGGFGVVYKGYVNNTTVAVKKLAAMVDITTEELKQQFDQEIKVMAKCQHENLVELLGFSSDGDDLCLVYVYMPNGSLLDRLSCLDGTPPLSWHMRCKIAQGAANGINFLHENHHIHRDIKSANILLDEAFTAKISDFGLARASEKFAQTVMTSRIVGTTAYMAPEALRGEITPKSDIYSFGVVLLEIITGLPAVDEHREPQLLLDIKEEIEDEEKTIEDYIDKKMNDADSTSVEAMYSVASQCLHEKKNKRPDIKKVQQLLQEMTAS
Description: Degradation of IRAK4 in OCI-LY10 was quantitatively measured using Meso Scale Discovery technology. OCI-LY10 cells were seeded in 96-well plates (Corning 3799) with a density of 300,000 cells per well in 100 μL fresh media. Compounds were then added to the assay plates with a final top concentration of 1 to 10 μM in a 1:3 dilution series with total of 8 doses. The assay plates were then incubated for 4 to 24 hours at 37° C. under 5% CO2. The assay plates were then centrifuged for 5 minutes and the cell pellets were treated with 100 μL/well RIPA lysis buffer (Boston BioProducts BP-115D) with proteinase inhibitors. To prepare MSD assay plates (Meso Scale Discovery Catalog number L15XA-3), the plates were coated with 2 μg/mL capture antibody (mouse Anti-IRAK4 antibody [2H9], ab119942) in PBS, at 40 μL/well. The plates were then incubated overnight at 4° C., washed 3 times with 150 μL/well TBST buffer (Cell Signaling Technology, Catalog number 9997S) and blocked with 150 μL/well blocking buffer (Meso Scale Discovery Catalog number R93BA-4). Cell lysates were then added to MSD assay plates and the plates were incubated at room temperature for 1 hour. The plates were then washed 3 times with 150 μL/well TBST buffer and 25 μL/well primary detection antibody (rabbit Anti-IRAK4 antibody [Y279], from Abcam. Catalog number ab32511, 1 μg/mL). The assay plates were then incubated at room temperature for 1 hour, washed 3 times with 150 μL/well TBST buffer and 25 μL/well secondary detection antibody, SULFO-TAG anti-rabbit antibody were added (anti rabbit antibody from Meso Scale Discovery, Catalog number R32AB-1, 1 μg/mL). The assay plates were then incubated at room temperature for 1 hour, washed 3 times with 150 μL/well TBST buffer, and 150 μL/well MSD reading buffer (Meso Scale Discovery catalog number R92TC-2) was added. The plates were then analyzed by a MSD reader (Meso Scale Discovery, Model Quick Plex SQ 120). The data was then analyzed by software Prism 7.0 from GraphPad and the dose-depended IRAK4 degradation were fit using a three-parameter logistic equation to calculate DC50.

[3] = biological target: T2, Ikaros (protein product of gene IKZF1) (Homo sapiens, UniProt Q13422+Q96SW2); test: Quantification of Ikaros degradation in OCI-LY10 cells (quantitative immunoblotting); details: 6 h treatment
T2 construct: endogenous in cells; host or cells: OCI-LY10
Description: (§1) Degradation of Ikaros (protein product of gene IKZF1) and Aiolos (protein product of gene IKZF3) were determined by quantitative immunoblotting as follows. OCI-LY10 cells, 2×10^6 cells/well, were treated with listed concentrations of IRAK4 degraders or control compounds in 6 well plates for 6 h. Cells were collected, washed with cold PBS, lysed in RIPA buffer (Boston BioProducts BP-115D) with protease/phosphatase inhibitor cocktail (Roche 05892791001/Roche 04906837001) and centrifuged at 13000 RPM for 20 min to precipitate insoluble material. The supernatant fraction was diluted in SDS-PAGE loading buffer (Beyotime Bio P0015) and 20 μL of each sample was resolved on 4-12% Bis-Tris SDS-PAGE gels (Novex, WG1402BOX). Resolved samples were transferred to nitrocellulose membranes by wet electro-transfer method at 250 mV for 1.5 h. The membrane was blocked with LICOR blocking buffer (LI-COR, 927-50000) for 1 hour, washed three times with TBST (CST #99975) for 5 minutes each and incubated with primary antibody prepared in block buffer with 0.1% Tween-20 (Solarbio, P8220) at 4° C. overnight. Ikaros antibody was rabbit monoclonal D6N9Y (CST #14859), at 1:1000 dilution. Aiolos antibody was rabbit monoclonal D1C1E (CST #15103), at 1:1000 dilution. Signal was normalized to mouse anti-beta-Actin monoclonal 8H10D10 (CST #3700) used at 1:10,000 dilution. After incubation in primary antibodies, membranes were washed three times with TBST, 5 minutes each, incubated with fluorescently labeled secondary antibodies anti-rabbit IgG (Licor, 926-32211) at 1:5000 dilution; anti-mouse IgG (LI-COR, 926-68070) at 1:5000 dilution, for 1 hour at RT. After incubation in secondary, membranes were washed three times with TBST, 5 minutes each and read on LICOR Odyssey imager. Data was reported as signal for Ikaros or Aiolos relative to signal for actin, and normalized to DMSO-treated control.

[4] = biological target: T3, Aiolos (protein product of gene IKZF3) (Homo sapiens, UniProt Q96SW2+Q9UKT9); test: Quantification of Aiolos degradation in OCI-LY10 cells (quantitative immunoblotting); details: 6 h treatment
T3 construct: endogenous in cells; host or cells: OCI-LY10
Description: as §1

T3 sequence (Q9UKT9 whole entry): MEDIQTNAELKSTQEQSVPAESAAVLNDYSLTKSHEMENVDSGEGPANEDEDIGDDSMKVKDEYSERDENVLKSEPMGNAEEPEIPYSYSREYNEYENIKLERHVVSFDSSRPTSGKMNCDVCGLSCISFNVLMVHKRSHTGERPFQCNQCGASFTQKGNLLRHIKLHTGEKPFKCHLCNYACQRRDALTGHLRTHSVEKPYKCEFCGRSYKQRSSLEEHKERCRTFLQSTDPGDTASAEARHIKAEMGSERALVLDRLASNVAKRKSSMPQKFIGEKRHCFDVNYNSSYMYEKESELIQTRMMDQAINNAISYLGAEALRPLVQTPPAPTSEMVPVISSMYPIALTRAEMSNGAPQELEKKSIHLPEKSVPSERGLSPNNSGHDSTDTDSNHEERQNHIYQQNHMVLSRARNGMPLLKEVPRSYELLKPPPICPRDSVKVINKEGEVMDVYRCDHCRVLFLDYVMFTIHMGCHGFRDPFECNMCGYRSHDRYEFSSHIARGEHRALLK
T3 sequence (Q96SW2 whole entry): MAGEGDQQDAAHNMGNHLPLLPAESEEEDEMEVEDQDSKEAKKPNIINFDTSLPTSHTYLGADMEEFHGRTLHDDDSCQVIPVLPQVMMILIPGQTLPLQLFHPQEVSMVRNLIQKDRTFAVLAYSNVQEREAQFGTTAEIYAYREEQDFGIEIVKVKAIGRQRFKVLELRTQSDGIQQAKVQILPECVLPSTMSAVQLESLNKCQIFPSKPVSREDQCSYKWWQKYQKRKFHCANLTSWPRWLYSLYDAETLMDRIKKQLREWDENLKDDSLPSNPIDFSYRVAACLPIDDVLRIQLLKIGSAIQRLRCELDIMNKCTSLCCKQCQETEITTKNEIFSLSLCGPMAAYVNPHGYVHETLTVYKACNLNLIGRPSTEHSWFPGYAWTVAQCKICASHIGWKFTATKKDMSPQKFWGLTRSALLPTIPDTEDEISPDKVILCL
T3 sequence (Q16531 whole entry partner): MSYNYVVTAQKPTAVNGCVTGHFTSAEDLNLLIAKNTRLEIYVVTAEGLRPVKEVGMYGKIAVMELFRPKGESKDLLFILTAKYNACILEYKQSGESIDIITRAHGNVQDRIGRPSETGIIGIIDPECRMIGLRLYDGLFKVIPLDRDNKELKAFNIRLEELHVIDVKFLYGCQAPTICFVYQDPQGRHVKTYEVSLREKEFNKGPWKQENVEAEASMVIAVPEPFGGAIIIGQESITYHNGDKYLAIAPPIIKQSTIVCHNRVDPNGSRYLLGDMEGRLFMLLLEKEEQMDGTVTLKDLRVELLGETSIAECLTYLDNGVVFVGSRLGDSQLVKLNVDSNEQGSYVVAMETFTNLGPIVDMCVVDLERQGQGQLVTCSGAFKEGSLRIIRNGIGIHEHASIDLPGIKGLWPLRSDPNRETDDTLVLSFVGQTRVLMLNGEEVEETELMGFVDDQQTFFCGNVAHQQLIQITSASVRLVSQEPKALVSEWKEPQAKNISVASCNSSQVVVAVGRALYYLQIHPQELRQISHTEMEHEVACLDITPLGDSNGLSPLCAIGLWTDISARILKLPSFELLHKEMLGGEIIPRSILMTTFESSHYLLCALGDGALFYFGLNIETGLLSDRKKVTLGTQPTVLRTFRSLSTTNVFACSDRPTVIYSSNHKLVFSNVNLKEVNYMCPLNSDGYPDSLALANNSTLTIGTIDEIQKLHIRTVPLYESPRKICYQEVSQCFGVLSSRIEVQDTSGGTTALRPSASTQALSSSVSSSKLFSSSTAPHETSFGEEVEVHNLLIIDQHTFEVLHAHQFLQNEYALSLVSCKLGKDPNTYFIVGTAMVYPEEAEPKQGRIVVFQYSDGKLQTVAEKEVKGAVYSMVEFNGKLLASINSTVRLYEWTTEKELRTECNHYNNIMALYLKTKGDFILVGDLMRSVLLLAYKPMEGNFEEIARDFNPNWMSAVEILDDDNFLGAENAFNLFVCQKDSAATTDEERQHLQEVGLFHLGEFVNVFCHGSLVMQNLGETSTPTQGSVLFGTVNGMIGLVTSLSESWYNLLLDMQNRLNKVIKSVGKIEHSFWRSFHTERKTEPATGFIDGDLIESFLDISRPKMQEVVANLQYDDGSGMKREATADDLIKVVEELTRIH
T2 sequence (Q13422 whole entry): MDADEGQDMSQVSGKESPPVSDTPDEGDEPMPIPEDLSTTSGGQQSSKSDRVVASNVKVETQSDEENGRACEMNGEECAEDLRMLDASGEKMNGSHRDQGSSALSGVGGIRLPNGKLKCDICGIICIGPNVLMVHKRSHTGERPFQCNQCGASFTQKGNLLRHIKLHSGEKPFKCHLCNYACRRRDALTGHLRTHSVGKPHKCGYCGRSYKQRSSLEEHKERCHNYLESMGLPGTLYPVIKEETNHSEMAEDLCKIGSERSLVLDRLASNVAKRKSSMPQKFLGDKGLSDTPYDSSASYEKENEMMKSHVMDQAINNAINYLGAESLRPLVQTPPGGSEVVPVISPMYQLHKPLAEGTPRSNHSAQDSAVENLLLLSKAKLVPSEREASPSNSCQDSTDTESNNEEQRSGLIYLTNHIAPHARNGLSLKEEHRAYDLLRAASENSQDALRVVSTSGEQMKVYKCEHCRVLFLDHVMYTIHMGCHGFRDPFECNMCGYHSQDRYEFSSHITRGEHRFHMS
T2 sequence (Q96SW2 whole entry): as the sequence (Q96SW2 whole entry) above
T2 sequence (Q16531 whole entry partner): as the sequence (Q16531 whole entry partner) above

Row | Compound | IC50 [1] | DC50 [2] | DC50 [3] | DC50 [4]
1 | COc1cc2nc([C@H]3CC[C@H](CN4CCC5(CC4)CC(Nc4cccc6c4C(=O)N(C4CCC(=O)NC4=O)C6=O)C5)CC3)sc2cc1NC(=O)c1cnn2cccnc12 (stereo partly shown) [I-34] | 50 to 100 nM | < 50 nM | < 50 nM | < 50 nM
2 | CN(C[C@H]1CC[C@H](c2nc3cc(C(C)(C)O)c(NC(=O)c4cccc(C(F)(F)F)n4)cc3s2)CC1)[C@H]1CC[C@]2(CC1)C[C@@H](CNc1cccc3c1C(=O)N(C1CCC(=O)NC1=O)C3=O)C2 (stereo partly shown) [I-25] | < 50 nM | 50 to 100 nM | < 50 nM | < 50 nM
3 | COc1cc2nc([C@H]3CC[C@H](CN4CCC5(CC4)CC(CCNc4cccc6c4C(=O)N(C4CCC(=O)NC4=O)C6=O)C5)CC3)sc2cc1NC(=O)c1cccc(C(C)(F)F)n1 (stereo partly shown) [I-19] | 100 to 500 nM | 50 to 100 nM | 50 to 100 nM | < 50 nM
4 | CC1(C)OC2(C)c3ccccc3CCN2c2cc3sc([C@H]4CC[C@H](CN5CC6(CC(CCNc7cccc8c7C(=O)N(C7CCC(=O)NC7=O)C8=O)C6)C5)CC4)nc3cc21 (stereo partly shown) [I-49] | 50 to 100 nM | > 1000 nM | < 50 nM | < 50 nM
5 | CC(C)(O)c1cc2nc([C@H]3CC[C@H](CN4CC5(CCC(CNc6cccc7c6C(=O)N(C6CCC(=O)NC6=O)C7=O)CC5)C4)CC3)sc2cc1NC(=O)c1cccc(C(F)(F)F)n1 (stereo partly shown) [I-30] | 50 to 100 nM | < 50 nM | < 50 nM | < 50 nM
6 | CC(C)(O)c1cc2nc([C@H]3CC[C@H](CN4CC5(CC(CCNc6cccc7c6C(=O)N(C6CCC(=O)NC6=O)C7=O)C5)C4)CC3)sc2cc1-n1ccc2ccccc2c1=O (stereo partly shown) [I-40] | < 50 nM | 100 to 500 nM | < 50 nM | < 50 nM
7 | CC(C)(O)c1cc2nc([C@H]3CC[C@@H](CN4CC5(CC(CCNc6cccc7c6C(=O)N(C6CCC(=O)NC6=O)C7=O)C5)C4)CC3)sc2cc1NC(=O)c1cccc(C(F)(F)F)n1 (stereo partly drawn) [I-62, N-(2-((1S,4S)-4-((6-(2-((2-(2,6-dioxopiperidin-3-yl)-1,3-dioxoisoindolin-4-yl)amino)ethyl)-2-azaspiro[3.3]heptan-2-yl)methyl)cyclohexyl)-5-(2-hydroxypropan-2-yl)benzo[d]thiazol-6-yl)-6-(trifluoromethyl)picolinamide] |  | 50 to 100 nM | < 50 nM | < 50 nM
8 | CC(C)(O)c1cc2nc([C@H]3CC[C@H](CN4CC5(CC(CCNc6cccc7c6C(=O)N([C@H]6CCC(=O)NC6=O)C7=O)C5)C4)CC3)sc2cc1NC(=O)c1cccc(C(F)(F)F)n1 (single isomer, unassigned) [I-66] |  | < 50 nM | < 50 nM | < 50 nM

Now from value to compound:

Row | IC50 [1] | DC50 [2] | DC50 [3] | DC50 [4] | Compound
9 | < 50 nM | < 50 nM | < 50 nM | < 50 nM | CN(C[C@H]1CC[C@H](c2nc3cc(C(C)(C)O)c(NC(=O)c4cccc(C(F)(F)F)n4)cc3s2)CC1)[C@H]1CC[C@H](CNc2cccc3c2C(=O)N(C2CCC(=O)NC2=O)C3=O)CC1 (stereo partly shown) [I-41]
10 | < 50 nM |  |  |  | CC(C)(O)c1cc2nc([C@H]3CC[C@@H](N4CC5(CC(CCNc6cccc7c6C(=O)N(C6CCC(=O)NC6=O)C7=O)C5)C4)CC3)sc2cc1NC(=O)c1cccc(C(F)(F)F)n1 (single isomer, unassigned) [I-64]
11 | 50 to 100 nM | < 50 nM | < 50 nM | < 50 nM | C[C@@H](CNc1cccc2c1C(=O)N(C1CCC(=O)NC1=O)C2=O)C1CC2(C1)CN(C[C@H]1CC[C@H](c3nc4cc(C(C)(C)O)c(NC(=O)c5cccc(C(F)(F)F)n5)cc4s3)CC1)C2 (stereo partly shown) [I-32]
12 | < 50 nM | 50 to 100 nM | < 50 nM | < 50 nM | Cc1cccc(C(=O)Nc2cc3sc([C@H]4CC[C@H](CN5CCC6(CC5)CC(CCNc5cccc7c5C(=O)N(C5CCC(=O)NC5=O)C7=O)C6)CC4)nc3cc2C(C)(C)O)n1 (stereo partly shown) [I-22]
13 | < 50 nM | < 50 nM | < 50 nM | < 50 nM | CC(C)(O)c1cc2nc([C@H]3CC[C@H](CN4CCC(CCNc5cccc6c5C(=O)N(C5CCC(=O)NC5=O)C6=O)CC4)CC3)sc2cc1NC(=O)c1cccc(C(F)(F)F)n1 (stereo partly shown) [I-24]
14 | < 50 nM | < 50 nM | < 50 nM | < 50 nM | CC(C)(O)c1cc2nc([C@H]3CC[C@H](N4CC5(CC(CCNc6cccc7c6C(=O)N(C6CCC(=O)NC6=O)C7=O)C5)C4)CC3)sc2cc1NC(=O)c1cccc(C(F)(F)F)n1 (single isomer, unassigned) [I-63]
15 | < 50 nM |  |  |  | CC(C)(O)c1cc2nc([C@H]3CC[C@H](CN4CC5(CC(CCNc6cccc7c6C(=O)N(C6CCC(=O)NC6=O)C7=O)C5)C4)CC3)sc2cc1NC(=O)c1ccccn1 (stereo partly shown) [I-57]
16 | 50 to 100 nM | > 1000 nM | < 50 nM | < 50 nM | CN(C[C@H]1CC[C@H](c2nc3cc(C(C)(C)O)c(NC(=O)c4cccc(C(F)(F)F)n4)cc3s2)CC1)[C@H]1CC[C@@H](CNc2cccc3c2C(=O)N(C2CCC(=O)NC2=O)C3=O)CC1 (stereo partly shown) [I-48]
17 | < 50 nM | < 50 nM |  |  | CC(C)(O)c1cc2nc([C@H]3CC[C@H](CN4CC5(CC(CCNc6cccc7c6C(=O)N(C6CCC(=O)NC6=O)C7=O)C5)C4)CC3)sc2cc1N1CCc2ccccc2C1=O (stereo partly shown) [I-60]
18 | < 50 nM | > 1000 nM |  |  | Cc1nccc(C(=O)Nc2cc3sc([C@H]4CC[C@H](CN5CC6(CC(CCNc7cccc8c7C(=O)N(C7CCC(=O)NC7=O)C8=O)C6)C5)CC4)nc3cc2C(C)(C)O)n1 (stereo partly shown) [I-51]
19 | < 50 nM |  |  |  | CC(C)(O)c1cc2nc([C@H]3CC[C@H](CN4CC5(CC(CCNc6cccc7c6C(=O)N(C6CCC(=O)NC6=O)C7=O)C5)C4)CC3)sc2cc1NC(=O)c1cnccn1 (stereo partly shown) [I-58]

— patent US20210228562A1, “IRAK DEGRADERS AND USES THEREOF” (Kymera Therapeutics, Inc., priority 2019, published 2021)
